Assay [1] has as its system murine 2-5A-dependent RNase (truncated recombinant clone ZB1 and naturally occurring L929 cell enzyme). The assay is described as follows: uv covalent crosslinking of 2-5A probe with unlabeled oligonucleotide competitors. In kind it is binding. The note with it: for competition with 2-5A probe for binding to protein: competitor 100 nM, recombinant 74 kDa protein in wheat germ extract, similar profile with L929 cell enzyme; for concentration required to prevent 2-5A probe binding: both proteins (recombinant ZB1 and naturally occurring). The method, then:
(§1) The synthesis of the 2-5A probe, p(A2'p)2 (br^8 A2'p)2 A[32P]Cp, and its crosslinking to 2-5A-dependent RNase is performed exactly as described. See Nolan-Sorden, N. L. et al., Anal. Biochem., 184:298-304 (1990). Briefly, the 2-5A probe, about 0.7 to 2.5 nM at […], is incubated for about one hour on ice with cell extract prepared as described, Silverman, R. H. and Krause, D., I.R.L. Press, Oxford, England, pp. 149-193 (1987), in the absence or presence of unlabeled oligonucleotide competitors. Covalent crosslinking is done under a uv lamp (308 nm) for one hour on ice and the proteins are separated on SDS/10% polyacrylamide gels. Filter assays for 2-5A binding activity using the 2-5A probe for about one hour on ice, as described in Knight, M. et al., Nature, 288:189-192 (1980).

In assay [2] the test system is human 2-5A-dependent RNase (recombinant and HeLa cell). The assay is described as above. In kind it is binding. The note with it: competitor 100 nM; recombinant human enzyme in wheat germ extract; same pattern in HeLa cell extract. As to the method: as §1
For another assay, the system named is 2-5A probe. The assay is described as follows: 2-5A binding activity of nested 3'-deletion clones (filter binding and uv crosslinking). The note with it: expressed in wheat germ extract. The method, then: The set of nested 3'-deletions of the truncated murine 2-5A-dependent RNase cDNA, ZB1, is generated with exonuclease III/S1 nuclease digestion followed by filling-in with Klenow DNA Polymerase using the "Erase-A-Base"system (Promega).
as §1

The test system of the next assay is poly(U). The assay is described as follows: ribonuclease assay with 2-5A-cellulose. The note with it: enzyme made in reticulocyte lysate, bound to 2-5A-cellulose, 30° C. In kind it is biochemical. As to the method:
(§2) Transcription of plasmids with phage RNA polymerases is in the presence of mGppppG as described (Promega) except that reaction mixtures are supplemented with 15% dimethyl sulfoxide and incubations are at about 37° C. for about 90 minutes. RNA is purified through Sephadex G50 spun-columns and ethanol precipitated prior to translation. Protein synthesis was performed, as described (Promega), at about 30° C. for about one hour in micrococcal nuclease-pretreated rabbit reticulocyte lysate or in an extract of wheat germ at about room temperature for about one hour and then at about […] for about 12 hours. Translation reactions contain about 50 μM zinc sulfate. […]
(§3) The ribonuclease assay with 2-5A-cellulose is performed, as described by Silverman, R. H., Anal. Biochem., 144:450-460 (1985). […] The matrix is then incubated with poly(U)-[^32 P]Cp or poly(C)-[^32 P]Cp (both at about 16 μM in nucleotide equivalents) at about 30° C. and the levels of acid-precipitable radioactive RNA are determined by filtration on glass-fiber filters.

The subject of the next assay is poly(C). The assay is described as follows: ribonuclease assay with 2-5A-cellulose. In kind it is biochemical. The note with it: after one hour of incubation; enzyme bound to 2-5A-cellulose. The method, then:
as §2, §3

The subject of a further assay is 32P-2-5A probe. The assay is described as follows: 2-5A binding of lysine to asparagine mutants, uv crosslinking, phosphorimager analysis. The note with it: wheat germ translation products; phosphorimager analysis of dried gel.

Experimental findings from US5861300A, “Antiviral transgenic plants, vectors, cells and methods” (The Cleveland Clinic Foundation, priority 1995, dated 1999) are described below.

Protocol for 32P-2-5A probe: Briefly, the 2-5A probe, about 0.7 to 2.5 nM at 3,0009 Ci/mmole, is incubated for about one hour on ice with cell extract prepared as described, Silverman, R. H. and Krause, D., I.R.L. Press, Oxford, England, pp. 149-193 (1987), in the absence or presence of unlabeled oligonucleotide competitors. Covalent crosslinking is done under a uv lamp (308 nm) for one hour on ice and the proteins are separated on SDS/10% polyacrylamide gels.
The lysines in the truncated murine 2-5A-dependent RNase, clone ZB1, at positions 240 and 274 are mutated, individually and together, to asparagine residues.

Regarding (A2'p)2 A, the “fold higher concentration than trimer 2-5A required to prevent probe binding” value in assay [1] (both proteins) turned out to be 500 fold. For the same molecule, the “competition with 2-5A probe for binding to protein” value in assay [1] is “fails to interfere with binding”; in assay [2], “not prevented”. In assay [1] (probe 2.4 nM), the “concentration required to prevent 2-5A probe binding” value (from here on “concentration required”) stood at 10 µM.
Regarding p3 (A2'p)2 A, the “competition with 2-5A probe for binding to protein” value in assay [1] is on record as “completely prevents probe binding”; in assay [2] it was “effectively competes”. Further, the “concentration that prevents the 2-5A probe from binding” value in assay [1] (probe 2.4 nM, either protein (recombinant ZB1 and naturally occurring)) is listed as “about 20 nM”.
In the case of p3 A2'pA, the “concentration required” value in assay [1] (probe 2.4 nM) is above 10 µM.
p3 I2'pA2'pA: the “concentration required” value in assay [1] (probe 2.4 nM) is reported as “about 1.0 μM”.

B1: ZB11: murine 2-5A-dependent RNase deletion mutant, amino acid residues 1 to 342 (protein, UniProt Q05921 1-342, looked up, fragment)
chain: METPDYNTPQGGTPSAGSQRTVVEDDSSLIKAVQKGDVVRVQQLLEKGADANACEDTWGWTPLHNAVQAGRVDIVNLLLSHGADPHRRKKNGATPFIIAGIQGDVKLLEILLSCGADVNECDENGFTAFMEAAERGNAEALRFLFAKGANVNLRRQTTKDKRRLKQGGATALMSAAEKGHLEVLRILLNDMKAEVDARDNMGRNALIRTLLNWDCENVEEITSILIQHGADVNVRGERGKTPLIAAVERKHTGLVQMLLSREGINIDARDNEGKTALLIAVDKQLKEIVQLLLEKGADKCDDLVWIARRNHDYHLVKLLLPYVANPDTDPPAGDWSPHSSRW
For the molecule B1, the “loss of 2-5A binding activity as compared to clone ZB1” value in the assay on 2-5A probe was “about 26%”.

B2: recombinant human 2-5A-dependent RNase: full-length human 2-5A-dependent RNase translated in vitro in reticulocyte lysate (protein, UniProt Q05823 1-741, looked up)
chain: MESRDHNNPQEGPTSSSGRRAAVEDNHLLIKAVQNEDVDLVQQLLEGGANVNFQEEEGGWTPLHNAVQMSREDIVELLLRHGADPVLRKKNGATPFILAAIAGSVKLLKLFLSKGADVNECDFYGFTAFMEAAVYGKVKALKFLYKRGANVNLRRKTKEDQERLRKGGATALMDAAEKGHVEVLKILLDEMGADVNACDNMGRNALIHALLSSDDSDVEAITHLLLDHGADVNVRGERGKTPLILAVEKKHLGLVQRLLEQEHIEINDTDSDGKTALLLAVELKLKKIAELLCKRGASTDCGDLVMTARRNYDHSLVKVLLSHGAKEDFHPPAEDWKPQSSHWGAALKDLHRIYRPMIGKLKFFIDEKYKIADTSEGGIYLGFYEKQEVAVKTFCEGSPRAQREVSCLQSSRENSHLVTFYGSESHRGHLFVCVTLCEQTLEACLDVHRGEDVENEEDEFARNVLSSIFKAVQELHLSCGYTHQDLQPQNILIDSKKAAHLADFDKSIKWAGDPQEVKRDLEDLGRLVLYVVKKGSISFEDLKAQSNEEVVQLSPDEETKDLIHRLFHPGEHVRDCLSDLLGHPFFWTWESRYRTLRNVGNESDIKTRKSESEILRLLQPGPSEHSKSFDKWTTKINECVMKKMNKFYEKRGNFYQNTVGDLLKFIRNLGEHIDEEKHKKMKLKIGDPSLYFQKTFPDLVIYVYTKLQNTEYRKHFPQTHSPNKPQCDGAGGASGLASPGC
modifications: full-length
notes: full-length human 2-5A-dependent RNase translated in vitro in reticulocyte lysate
Regarding B2, the “half-life of poly(U) degradation” value with poly(U) is “about 10 minutes”. The “poly(C) degraded” value with poly(C) is on record as 20%.

B3: ZB15: murine 2-5A-dependent RNase deletion mutant, amino acids 1 to 218, both P-loop motifs deleted (protein, UniProt Q05921 1-218, looked up, fragment)
chain: METPDYNTPQGGTPSAGSQRTVVEDDSSLIKAVQKGDVVRVQQLLEKGADANACEDTWGWTPLHNAVQAGRVDIVNLLLSHGADPHRRKKNGATPFIIAGIQGDVKLLEILLSCGADVNECDENGFTAFMEAAERGNAEALRFLFAKGANVNLRRQTTKDKRRLKQGGATALMSAAEKGHLEVLRILLNDMKAEVDARDNMGRNALIRTLLNWDCENV
For the molecule B3, the “2-5A binding activity relative to clone ZB1” value with 2-5A probe is given as “completely lacking in 2-5A binding activity”.

B4: ZB1(Lys^240,274 -)Asn): double mutant of clone ZB1, lysines 240 and 274 replaced by asparagine (protein, UniProt Q05921 1-735, looked up, variant K240N K274N)
2-5A-dependent ribonuclease: METPDYNTPQGGTPSAGSQRTVVEDDSSLIKAVQKGDVVRVQQLLEKGADANACEDTWGWTPLHNAVQAGRVDIVNLLLSHGADPHRRKKNGATPFIIAGIQGDVKLLEILLSCGADVNECDENGFTAFMEAAERGNAEALRFLFAKGANVNLRRQTTKDKRRLKQGGATALMSAAEKGHLEVLRILLNDMKAEVDARDNMGRNALIRTLLNWDCENVEEITSILIQHGADVNVRGERGNTPLIAAVERKHTGLVQMLLSREGINIDARDNEGNTALLIAVDKQLKEIVQLLLEKGADKCDDLVWIARRNHDYHLVKLLLPYVANPDTDPPAGDWSPHSSRWGTALKSLHSMTRPMIGKLKIFIHDDYKIAGTSEGAVYLGIYDNREVAVKVFRENSPRGCKEVSCLRDCGDHSNLVAFYGREDDKGCLYVCVSLCEWTLEEFLRLPREEPVENGEDKFAHSILLSIFEGVQKLHLHGYSHQDLQPQNILIDSKKAVRLADFDQSIRWMGESQMVRRDLEDLGRLVLYVVMKGEIPFETLKTQNDEVLLTMSPDEETKDLIHCLFSPGENVKNCLVDLLGHPFFWTWENRYRTLRNVGNESDIKVRKCKSDLLRLLQHQTLEPPRSFDQWTSKIDKNVMDEMNHFYEKRKKNPYQDTVGDLLKFIRNIGEHINEEKKRGMKEILGDPSRYFQETFPDLVIYIYKKLKETEYRKHFPQPPPRLSVPEAVGPGGIQS
In the case of B4, the “2-5A binding activity relative to clone ZB1 (control)” value in the assay with 32P-2-5A probe is reported as 12.2%.

B5: ZB14: murine 2-5A-dependent RNase deletion mutant, amino acids 1 to 265, one P-loop motif deleted (protein, UniProt Q05921 1-265, looked up, fragment)
chain: METPDYNTPQGGTPSAGSQRTVVEDDSSLIKAVQKGDVVRVQQLLEKGADANACEDTWGWTPLHNAVQAGRVDIVNLLLSHGADPHRRKKNGATPFIIAGIQGDVKLLEILLSCGADVNECDENGFTAFMEAAERGNAEALRFLFAKGANVNLRRQTTKDKRRLKQGGATALMSAAEKGHLEVLRILLNDMKAEVDARDNMGRNALIRTLLNWDCENVEEITSILIQHGADVNVRGERGKTPLIAAVERKHTGLVQMLLSREGIN
Consider B5, for which the “2-5A binding activity relative to clone ZB1” value in the assay with 2-5A probe was determined as 1.9%.

B6: ZB13: murine 2-5A-dependent RNase deletion mutant, amino acids 1 to 294 (protein, UniProt Q05921 1-294, looked up, fragment)
chain: METPDYNTPQGGTPSAGSQRTVVEDDSSLIKAVQKGDVVRVQQLLEKGADANACEDTWGWTPLHNAVQAGRVDIVNLLLSHGADPHRRKKNGATPFIIAGIQGDVKLLEILLSCGADVNECDENGFTAFMEAAERGNAEALRFLFAKGANVNLRRQTTKDKRRLKQGGATALMSAAEKGHLEVLRILLNDMKAEVDARDNMGRNALIRTLLNWDCENVEEITSILIQHGADVNVRGERGKTPLIAAVERKHTGLVQMLLSREGINIDARDNEGKTALLIAVDKQLKEIVQLLLE
With B6, the “2-5A binding activity relative to clone ZB1” value with 2-5A probe is recorded as “about 38.3%”.
